Patent publication US9284306B2, “(R)-Nifuratel, its use for the treatment of infections and synthesis of (R) and (S)-Nifuratel” (POLICHEM SA, priority 2012, dated 2016)
In brackets after ≈: the same amount, converted by molar mass. Where two headings read alike, the source gives them in different places.

Key:
[1] = system: Lactobacillus iners ATCC 55195; test: MIC, broth microdilution; assay type: cell-based; settings: ATCC55195
Method: (§1) Micrococcus pyogenes (ATCC 11631), Bacillus subtilis (ATCC 11774), Lactobacillus iners (ATCC 55195), Escherichia coli (ATCC 11775), Proteus mirabilis (ATCC 14153), Klebsiella pneumoniae (ATCC 10031), Shigella sonnei (ATCC 11060), Neisseria gonorrhoeae (ATCC 19424), Salmonella typhimurium (ATCC 14028) Salmonella paratyphi B (ATCC 10719), Helicobacter pylori (ATCC 43504) and several strains of Atopobium vaginae and Gardnerella vaginalis.
(§2) Strains were prepared from freeze-dried pellets. An isolation of the suspensions (to test the strains purity) and a strains massive growth were made by streaking microbial suspensions on agar media. The bacterial colonies on agar plates were collected with 3-5 mL of specific liquid medium+15% glycerol and then the aliquots were frozen at −80° C.
(§3) Compounds Minimal Inhibitory Concentration (MIC) was determined through broth micro-dilution susceptibility testing with a method developed following the National Committee for Clinical Laboratory Standards (CLSI) M07-A8 and M11-A7 references. Assays were carried out in specific media (Table 3). The tests were performed either following the broth microdilution assay or the agar dilution assay. Compounds stock solutions were made at 12.8 mg/mL in DMSO 100%. A series of twofold dilutions were then prepared using the strain specific broth. Final concentrations were from 0.125 μg/mL to 64 μg/mL at 1% DMSO. MIC is defined as the lowest concentration of antibacterial agent which prevent any visible growth.

[2] = system: Neisseria gonorrhoeae ATCC 19424; test: MIC, broth microdilution; assay type: cell-based; settings: ATCC19424
Method: as §1, §2, §3

[3] = system: Escherichia coli ATCC 11775; test: MIC, broth microdilution; assay type: cell-based; settings: ATCC11775
Method: as §1, §2, §3

[4] = system: Salmonella typhimurium ATCC 14028; test: MIC, broth microdilution; assay type: cell-based; settings: Salmonella enterica
Method: as §1, §2, §3

[5] = system: Shigella sonnei ATCC 11060; test: MIC, broth microdilution; assay type: cell-based; settings: ATCC11060
Method: as §1, §2, §3

[6] = system: Micrococcus pyogenes ATCC 11631; test: MIC, broth microdilution; assay type: cell-based; settings: Staphylococcus aureus, ATCC11631
Method: as §1, §2, §3

[7] = system: Helicobacter pylori ATCC 43504; test: MIC, broth microdilution; assay type: cell-based; settings: Helicobacter pylori, ATCC43504
Method: as §1, §2, §3

[8] = system: Proteus mirabilis ATCC 14153; test: MIC, broth microdilution; assay type: cell-based; settings: ATCC14153
Method: as §1, §2, §3

[9] = system: Klebsiella pneumonia ATCC 10031; test: MIC, broth microdilution; assay type: cell-based; settings: Klebsiella pneumoniae, ATCC10031
Method: as §1, §2, §3

[10] = system: Salmonella paratyphi B ATCC 10719; test: MIC, broth microdilution; assay type: cell-based; settings: Salmonella enterica
Method: as §1, §2, §3

[11] = system: Bacillus subtilis; test: MIC, broth microdilution; assay type: cell-based
Method: as §1, §2, §3

[12] = system: Atopobium vaginae; test: MIC, agar dilution; assay type: cell-based; settings: Fannyhessea vaginae
Method: as §1, §2, §3

[13] = system: Gardnerella vaginalis; test: MIC, agar dilution; assay type: cell-based
Method: as §1, §2, §3

[14] = in vivo; settings: male, rat, po, 15 mg/kg
[15] = in vivo; settings: male, rat, iv, 2 mg/kg
[16] = system: Staphylococcus aureus (MRSA); test: MIC, broth microdilution; assay type: cell-based
Method: as §2, §3

[17] = rat, in vivo
Method: The pharmacokinetic profile of S- and R-nifuratel was assessed after intravenous administration (2 mg/kg) and oral gavage (15 mg/kg) in male rats.

[18] = system: Gram positive and negative organisms; test: Antimicrobial activity (MIC), overall comparison; assay type: cell-based; settings: Tables 3 and 4, overall
Text: as §1, §3

CSCC1CN(/N=C/c2ccc([N+](=O)[O-])o2)C(=O)O1 (racemic) [Nifuratel racemate, Nifuratel]
MIC ([1]; Lactobacillus iners): 16 µg/mL (≈ 56.1 µM)
MIC ([2]; Neisseria gonorrhoeae): 0.25 µg/mL (≈ 0.876 µM)
MIC ([3]; Escherichia coli): 1 µg/mL (≈ 3.51 µM)
MIC [4]: 4 µg/mL (≈ 14 µM)
MIC [5]: 1 µg/mL (≈ 3.51 µM)
MIC [6]: 1 µg/mL (≈ 3.51 µM)
MIC [7]: 0.125 µg/mL (≈ 0.438 µM)
MIC ([8]; Proteus mirabilis): 8 µg/mL (≈ 28 µM)
MIC [9]: 2 µg/mL (≈ 7.01 µM)
MIC [10]: 2 µg/mL (≈ 7.01 µM)
MIC [11]: 0.5 µg/mL (≈ 1.75 µM)
MIC ([12]; CCUG38953): 0.125 µg/mL (≈ 0.438 µM)
MIC ([12]; CCUG39382): 0.25 µg/mL (≈ 0.876 µM)
MIC ([12]; CCUG42099): 0.5 µg/mL (≈ 1.75 µM)
MIC ([12]; CCUG43049): 0.25 µg/mL (≈ 0.876 µM)
MIC ([12]; CCUG44061): 0.5 µg/mL (≈ 1.75 µM)
MIC ([12]; CCUG44156): 0.5 µg/mL (≈ 1.75 µM)
MIC ([12]; CCUG48515): 1 µg/mL (≈ 3.51 µM)
MIC ([12]; CCUG55226): 1 µg/mL (≈ 3.51 µM)
MIC ([12]; CCUG55227): 0.25 µg/mL (≈ 0.876 µM)
MIC ([13]; ATCC14018, agar dilution, Gardnerella vaginalis ATCC 14018): 2 µg/mL (≈ 7.01 µM)
MIC ([13]; agar dilution, Gardnerella vaginalis C2): 8 µg/mL (≈ 28 µM)
MIC ([13]; agar dilution, Gardnerella vaginalis D2): 4 µg/mL (≈ 14 µM)
MIC ([13]; agar dilution, Gardnerella vaginalis E2): 2 µg/mL (≈ 7.01 µM)
MIC ([13]; agar dilution, Gardnerella vaginalis G2): 2 µg/mL (≈ 7.01 µM)
MIC ([13]; agar dilution, Gardnerella vaginalis H2): 1 µg/mL (≈ 3.51 µM)
MIC ([13]; agar dilution, Gardnerella vaginalis J2): 2 µg/mL (≈ 7.01 µM)
MIC ([13]; agar dilution, Gardnerella vaginalis K2): 4 µg/mL (≈ 14 µM)
AUC(0-t) [14]: 20.3 ng·h/mL
Clast [14]: 3 ng/mL
Cmax [14]: 8 ng/mL
MRT [14]: 1.82 h
Tlast [14]: 240 min
Tmax [14]: 30 min
half-life [14]: 182 min
AUC(0-inf) [15]: 125 ng·h/mL
AUC(0-t) [15]: 122 ng·h/mL
Clast [15]: 5 ng/mL
Cmax [15]: 555 ng/mL
MRT [15]: 13 min
Tlast [15]: 120 min
Tmax [15]: 2 min
VSR [15]: 4.5 L/kg
clearance [15]: 267 mL/min/kg
half-life [15]: 24 min

CSC[C@H]1CN(/N=C/c2ccc([N+](=O)[O-])o2)C(=O)O1 [R-nifuratel, (R)-Nifuratel]
MIC [16]: 2 µg/mL (≈ 7.01 µM)
overall pharmacokinetic profile [17]: best pharmacokinetic profile
MIC ([1]; broth microdilution, Lactobacillus iners ATCC 55195, read-out: MIC): 16 µg/mL (≈ 56.1 µM)
MIC ([2]; broth microdilution, Neisseria gonorrhoeae ATCC 19424, read-out: MIC): 0.25 µg/mL (≈ 0.876 µM)
MIC ([3]; broth microdilution, Escherichia coli ATCC 11775, read-out: MIC): 1 µg/mL (≈ 3.51 µM)
MIC ([4]; broth microdilution, Salmonella typhimurium ATCC 14028, read-out: MIC): 2 µg/mL (≈ 7.01 µM)
MIC [5]: 1 µg/mL (≈ 3.51 µM)
MIC ([6]; broth microdilution, Micrococcus pyogenes ATCC 11631, read-out: MIC): 2 µg/mL (≈ 7.01 µM)
MIC [7]: 0.125 µg/mL (≈ 0.438 µM)
MIC ([8]; broth microdilution, Proteus mirabilis ATCC 14153, read-out: MIC): 8 µg/mL (≈ 28 µM)
MIC ([9]; broth microdilution, Klebsiella pneumonia ATCC 10031, read-out: MIC): 2 µg/mL (≈ 7.01 µM)
MIC [10]: 1 µg/mL (≈ 3.51 µM)
MIC ([11]; broth microdilution, read-out: MIC): 0.25 µg/mL (≈ 0.876 µM)
MIC ([12]; CCUG38953, agar dilution, Atopobium vaginae CCUG 38953, read-out: MIC): 0.25 µg/mL (≈ 0.876 µM)
MIC ([12]; CCUG39382): 0.125 µg/mL (≈ 0.438 µM)
MIC ([12]; CCUG42099, agar dilution, Atopobium vaginae CCUG 42099, read-out: MIC): 0.25 µg/mL (≈ 0.876 µM)
MIC ([12]; CCUG43049, agar dilution, Atopobium vaginae CCUG 43049, read-out: MIC): 0.25 µg/mL (≈ 0.876 µM)
MIC ([12]; CCUG44061, agar dilution, Atopobium vaginae CCUG 44061, read-out: MIC): 0.25 µg/mL (≈ 0.876 µM)
MIC ([12]; CCUG44156, agar dilution, Atopobium vaginae CCUG 44156, read-out: MIC): 0.25 µg/mL (≈ 0.876 µM)
MIC ([12]; CCUG48515, agar dilution, Atopobium vaginae CCUG 48515, read-out: MIC): 0.5 µg/mL (≈ 1.75 µM)
MIC ([12]; CCUG55226, agar dilution, Atopobium vaginae CCUG 55226, read-out: MIC): 1 µg/mL (≈ 3.51 µM)
MIC ([12]; CCUG55227, agar dilution, Atopobium vaginae CCUG 55227, read-out: MIC): 0.25 µg/mL (≈ 0.876 µM)
MIC ([13]; ATCC14018, agar dilution, Gardnerella vaginalis ATCC 14018, read-out: MIC): 1 µg/mL (≈ 3.51 µM)
MIC ([13]; agar dilution, Gardnerella vaginalis C2, read-out: MIC): 4 µg/mL (≈ 14 µM)
MIC ([13]; agar dilution, Gardnerella vaginalis D2, read-out: MIC): 4 µg/mL (≈ 14 µM)
MIC ([13]; agar dilution, Gardnerella vaginalis E2, read-out: MIC): 1 µg/mL (≈ 3.51 µM)
MIC ([13]; agar dilution, Gardnerella vaginalis G2, read-out: MIC): 2 µg/mL (≈ 7.01 µM)
MIC ([13]; agar dilution, Gardnerella vaginalis H2, read-out: MIC): 1 µg/mL (≈ 3.51 µM)
MIC ([13]; agar dilution, Gardnerella vaginalis J2, read-out: MIC): 2 µg/mL (≈ 7.01 µM)
MIC ([13]; agar dilution, Gardnerella vaginalis K2, read-out: MIC): 4 µg/mL (≈ 14 µM)
AUC(0-t) [14]: 66.8 ng·h/mL
Clast [14]: 3 ng/mL
Cmax [14]: 34 ng/mL
MRT [14]: 82.4 h
Tlast [14]: 480 min
Tmax [14]: 5 min
half-life [14]: 236 min
AUC(0-inf) [15]: 750 ng·h/mL
AUC(0-t) [15]: 740 ng·h/mL
Clast [15]: 43 ng/mL
Cmax [15]: 4190 ng/mL
MRT [15]: 7 min
Tlast [15]: 75 min
Tmax [15]: 2 min
VSR [15]: 0.4 L/kg
clearance [15]: 49 mL/min/kg
half-life [15]: 11 min
antimicrobial profile compared to nifuratel racemate or (S)-nifuratel [18]: better antimicrobial profile
